Columns and labels:
KARPAS-422 cells = assay: Cell proliferation analysis, KARPAS-422, 13 days, CellTiter-Glo; format: cell-based; conditions: Homo sapiens, 312 h
Description: Human B-cell non-Hodgkin lymphoma cells, KARPAS-422 S, were cultured in a culture flask using standard cell culture conditions. The medium contained 15% fetal bovine serum (FBS, Invitrogen, product number 10099-141) and 1% penicillin/streptomycin solution (P/S) RPMI-1640 (Invitrogen, product number 11875), and the culture flask was placed and cultured in a sterile incubator at the temperature of 37° C. and […] with a relative humidity of […] To detect the effect of PRC2 inhibitors on cell proliferation, cells in exponential growth phase were taken and seeded into a 96-well plate (Corning, product number 3904) at a density of 1×10^4 cells/well, and 100 μL of the medium was added into each well. Subsequently, the compounds at different concentrations disclosed in the present disclosure were added into the wells where cells had already been seeded (9 concentration gradients were provided for each compound, with the highest detection concentration at 10 μM, 3-fold gradient dilution) and two replicates in parallel were provided for each treatment concentration. DMSO was at a final concentration of 0.5%. Afterwards, viable cell numbers were determined using Vi-CELL (Beckman Coulter) every 3-4 days. Cells counted were seeded into a new 96-well plate at the same density (1×10^4 cells/well) each time. The wells were supplemented with a fresh medium to 100 μL and at the same time, compounds at different concentrations were added. The cells were cultured to day 13. 100 μL of CellTiter-Glo (CellTiter-GloCellTiter-GloCellTiter-GloCTG) (Promega, product number G7573) was added into each well. The plate was placed in the dark at room temperature for 10-20 minutes and the luminescence signal was read using SpectraMax i3× (Molecular Devices).

[1] = test system: trimethylation level of histone H3K27 in G401 cells; assay: ELISA (H3K27 trimethylation) analysis in G401 cells; format: cell-based; conditions: Homo sapiens, G-401, 72 hours, H3K27me3 standardized to H3
Description: 3-fold series dilution with DMSO was carried out on the representative compounds of the present disclosure; and 10 concentration gradients were detected for each compound, with the highest detection concentration of 10 μM. The compounds were diluted 200-fold into the G401 cells cultured in a 96-well plate (DMSO at a final concentration of 0.5%). After the cells, administered with the compound, were cultured for 72 hours, the trimethylation level of the histone H3K27 was detected using the ELISA method.
Extraction of the histone: in a 96-well plate, the compound-treated cells were washed three times with 1×PBS (10×PBS buffer (80 g NaCl (Sigma, product number S3014), 2 g KCl (Sigma, product number 60128), 14.4 g Na2HPO4 (Sigma, product number S5136), and 2.4 g KH2PO4 (Sigma, product number P9791) in 1 L of water, adjusting the pH to 7.4)). 100 μL of 0.4 N HCl was added into each well. The plate was placed at 4° C. and gently agitated for 2 hours to lyse the cells. The cell lysate was then neutralized with 80 μL of neutralization buffer (0.5 M disodium hydrogen phosphate, pH 12.5, 2.5 mM DTT; 1% cocktail (Sigma, product number P8340)) (the cell lysate and the neutralization buffer were thoroughly mixed to uniformity).
ELISA detection method: the cell lysate was transferred in parallel to two 384-well detection plates (PerkinElmer, OptiPlate-384HB, product number 6007290), wherein one of the plates was used to detect the H3K27 trimethylation level and the other plate was used to determine the level of H3. PBS was used to adjust the final volume to 50 μL/well. The plates were coated at 4° C. overnight. On the following day, the solution inside the wells was discarded and the plates were washed 5 times with TBST buffer (1×TBS (10×TBS: 24.2 g Tris (Sigma, product number T6066), 80 g NaCl (Sigma, product number S3014) in 1 L of water, adjusting the pH with HCl to 7.6), 0.1% Tween-20) and dried on an absorbent paper by inversion. 70 μL of blocking buffer (TBST, 5% BSA) was added into the coated reaction wells and the plates were incubated at room temperature for 1 hour. The blocking buffer was discarded and primary antibodies were added (30 μL/well). The desired primary antibodies were all diluted with a blocking buffer and the dilution factor was as follows: anti-H3K27me3 antibody (Cell Signaling Technology, product number 9733), 1:2000 dilution; anti-H3 antibody (Cell Signaling Technology, product number 4499), 1:10000 dilution. After the primary antibodies were added, the plates were placed at room temperature and incubated for 1 hour. After the plates were washed with TBST 5 times, the plates were dried by inversion. A secondary antibody (30 μL/well) was added to each of the reaction wells and the plates were incubated at room temperature for 1 hour. The secondary antibody (anti-rabbit antibody (Jackson ImmunoResearch, product number 111-035-003)) was diluted 2000-fold with a blocking buffer before use. After 1 hour, the plates were washed with TBST and dried by inversion. 30 μL of ECL substrate (Pierce, product number 34080) was added into each well and centrifuged at 2000 rpm for 30 seconds. The signal of each sample was detected using SpectraMax (Molecular Devices). Data processing: H3K27 methylation readings were first standardlized using H3 signals and 0.5% DMSO-treated samples was used as the control to calculate the inhibition percentage of the compounds. Data were fit to obtain Dose-Response curves using the GraphPad prism 5 program and the IC50 values of the test compounds were obtained.

IC50 (KARPAS-422 cells) [µM] | IC50 [1] [µM] | SMILES
0.0035 | 0.0112 | CN(C)CCN(C)Cc1ccc(-c2cnc(NCc3c(F)ccc4c3CCO4)n3cnnc23)c2ncnn12 [N1-((8-(5-(((5-fluoro-2,3-dihydrobenzofuran-4-yl)methyl)amino)-[1,2,4]triazolo[4,3-c]pyrimidin-8-yl)-[1,2,4]triazolo[1,5-a]pyridin-5-yl)methyl)-N1,N2,N2-trimethylethane-1,2-diamine]
– | 0.0023 | CP(C)(=O)c1cnc2c(-c3cnc(NCc4c(F)ccc5c4CCO5)n4cnnc34)cc(F)cn12 [(6-fluoro-8-(5-(((5-fluoro-2,3-dihydrobenzofuran-4-yl)methyl)amino)-[1,2,4]triazolo[4,3-c]pyrimidin-8-yl)imidazo[1,2-a]pyridin-3-yl)dimethylphosphine oxide]
0.0036 | 0.0048 | N#Cc1ccc(-c2cnc(NCc3c(F)ccc4c3CCO4)n3cnnc23)c2nccn12 [8-(5-(((5-fluoro-2,3-dihydrobenzofuran-4-yl)methyl)amino)-[1,2,4]triazolo[4,3-c]pyrimidin-8-yl)imidazo[1,2-a]pyridine-5-carbonitrile]
0.0036 | 0.0047 | Fc1ccc2c(c1CNc1ncc(-c3cccc4scnc34)c3nncn13)CCO2 [8-(benzo[d]thiazol-4-yl)-N-((5-fluoro-2,3-dihydrobenzofuran-4-yl)methyl)-[1,2,4]triazolo[4,3-c]pyrimidin-5-amine]
– | 0.0006 | Cc1nc2c(-c3cnc(NCc4c(F)ccc5c4CCO5)n4cnnc34)ccc(N(C)C)n2n1 [8-(5-(dimethylamino)-2-methyl-[1,2,4]triazolo[1,5-a]pyridin-8-yl)-N-((5-fluoro-2,3-dihydrobenzofuran-4-yl)methyl)-[1,2,4]triazolo[4,3-c]pyrimidin-5-amine]
0.0011 | 0.0032 | COc1ccc(-c2cnc(NCc3c(F)ccc4c3CCO4)n3cnnc23)c2ncnn12 [N-((5-fluoro-2,3-dihydrobenzofuran-4-yl)methyl)-8-(5-methoxy-[1,2,4]triazolo[1,5-a]pyridin-8-yl)-[1,2,4]triazolo[4,3-c]pyrimidin-5-amine]
0.0045 | 0.0042 | COc1cc(-c2cnc(NCc3c(F)ccc4c3CCO4)n3cnnc23)c2ncc(C#N)n2c1 [8-(5-(((5-fluoro-2,3-dihydrobenzofuran-4-yl)methyl)amino)-[1,2,4]triazolo[4,3-c]pyrimidin-8-yl)-6-methoxyimidazo[1,2-a]pyridine-3-carbonitrile]
0.0007 | 0.0011 | CN1CCN(Cc2ccc(-c3cnc(NCc4c(F)ccc5c4CCO5)n4cnnc34)c3ncnn23)CC1 [N-((5-fluoro-2,3-dihydrobenzofuran-4-yl)methyl)-8-(5-((4-methylpiperazin-1-yl)methyl)-[1,2,4]triazolo[1,5-a]pyridin-8-yl)-[1,2,4]triazolo[4,3-c]pyrimidin-5-amine]
0.0018 | 0.0017 | Fc1ccc2c(c1CNc1ncc(-c3ccc(N4CC5(COC5)C4)n4ncnc34)c3nncn13)CCO2 [8-(5-(2-oxa-6-azaspiro[3.3]heptan-6-yl)-[1,2,4]triazolo[1,5-a]pyridin-8-yl)-N-((5-fluoro-2,3-dihydrobenzofuran-4-yl)methyl)-[1,2,4]triazolo[4,3-c]pyrimidin-5-amine]
0.0028 | 0.0023 | Cc1ccc(-c2cnc(NCc3c(F)ccc4c3CCO4)n3cnnc23)c2nc(C(=O)N(C)C)cn12 [8-(5-(((5-fluoro-2,3-dihydrobenzofuran-4-yl)methyl)amino)-[1,2,4]triazolo[4,3-c]pyrimidin-8-yl)-N,N,5-trimethylimidazo[1,2-a]pyridine-2-carboxamide]
0.0025 | 0.0024 | Cc1ccc(-c2cnc(NCc3c(F)ccc4c3CCO4)n3cnnc23)c2nnnn12 [N-((5-fluoro-2,3-dihydrobenzofuran-4-yl)methyl)-8-(5-methyltetrazolo[1,5-a]pyridin-8-yl)-[1,2,4]triazolo[4,3-c]pyrimidin-5-amine]
0.0011 | 0.0011 | Fc1ccc2c(c1CNc1ncc(-c3ccc(CN4CCOCC4)n4ncnc34)c3nncn13)CCO2 [N-((5-fluoro-2,3-dihydrobenzofuran-4-yl)methyl)-8-(5-(morpholinomethyl)-[1,2,4]triazolo[1,5-a]pyridin-8-yl)-[1,2,4]triazolo[4,3-c]pyrimidin-5-amine]
– | 0.0143 | N#Cc1cc(-c2cnc(NCc3c(F)ccc4c3CCO4)n3cnnc23)c2ncnn2c1 [8-(5-(((5-fluoro-2,3-dihydrobenzofuran-4-yl)methyl)amino)-[1,2,4]triazolo[4,3-c]pyrimidin-8-yl)-[1,2,4]triazolo[1,5-a]pyridine-6-carbonitrile]
– | 0.0028 | CN(C)c1c(F)cc(-c2cnc(NCc3c(F)ccc4c3CCO4)n3cnnc23)c2ncnn12 [8-(5-(dimethylamino)-6-fluoro-[1,2,4]triazolo[1,5-a]pyridin-8-yl)-N-((5-fluoro-2,3-dihydrobenzofuran-4-yl)methyl)-[1,2,4]triazolo[4,3-c]pyrimidin-5-amine]
– | 0.0055 | Fc1ccc2c(c1CNc1ncc(-c3ccc(C(F)F)n4ncnc34)c3nncn13)CCO2 [8-(5-(difluoromethyl)-[1,2,4]triazolo[1,5-a]pyridin-8-yl)-N-((5-fluoro-2,3-dihydrobenzofuran-4-yl)methyl)-[1,2,4]triazolo[4,3-c]pyrimidin-5-amine]
– | 0.0078 | CN(C)c1ccc(-c2cnc(NCc3c(F)ccc4c3CCO4)n3cnnc23)c2nncn12 [8-(5-(dimethylamino)-[1,2,4]triazolo[4,3-a]pyridin-8-yl)-N-((5-fluoro-2,3-dihydrobenzofuran-4-yl)methyl)-[1,2,4]triazolo[4,3-c]pyrimidin-5-amine]
– | 0.0008 | Cc1ccc(-c2cnc(NCc3c(F)ccc4c3CCO4)n3cnnc23)c2nnc(C)n12
0.0047 | – | CCOC(=O)c1cnc2c(-c3cnc(NCc4c(F)ccc5c4CCO5)n4cnnc34)ccc(C)n12 [Ethyl 8-(5-(((5-fluoro-2,3-dihydrobenzofuran-4-yl)methyl)amino)-[1,2,4]triazolo[4,3-c]pyrimidin-8-yl)-5-methylimidazo[1,2-a]pyridine-3-carboxylate]
– | 0.088 | Cc1ccc(-c2cnc(NCc3c(F)ccc4c3CCO4)n3cnnc23)c2ncc(S(C)(=O)=O)n12 [N-((5-fluoro-2,3-dihydrobenzofuran-4-yl)methyl)-8-(5-methyl-3-(methylsulfonyl)imidazo[1,2-a]pyridin-8-yl)-[1,2,4]triazolo[4,3-c]pyrimidin-5-amine]
– | 0.0018 | CN(C)c1ncc(-c2cnc(NCc3c(F)ccc4c3CCO4)n3cnnc23)c2ncnn12 [8-(5-(dimethylamino)-[1,2,4]triazolo[1,5-c]pyrimidin-8-yl)-N-((5-fluoro-2,3-dihydrobenzofuran-4-yl)methyl)-[1,2,4]triazolo[4,3-c]pyrimidin-5-amine]

Reference: patent publication US12583870B2, “Azaheteroaryl compound and application thereof” (SHANGHAI BLUERAY BIOPHARMA CO., LTD., priority 2019, dated 2026)
